Test results published in patent US10858355B2, “Inhibitors of phosphatidylinositol 3-kinase gamma” (AstraZeneca AB, priority 2016, dated 2020).

The molecules below were run against recombinant human PI3Kγ (aa144-1102)-6His (Homo sapiens (Human), UniProt P48736) (assay: Test A: Enzymatic Activity Assay for Rec Human PI3Kγ (ADP-Glo)). Details: 20 μM ATP, 80 μM DiC8-PIP2, 1.2 nM PI3Kγ, 15 min pre-incubation, 60 min reaction.
Type: biochemical
Description: Pharmacological Activity Test A: Enzymatic Activity Assay for Rec Human PI3Kγ
The activity of recombinant human PI3Kγ (aa144-1102)-6His was determined by measuring the ADP level after phosphorylation of DiC8-PIP2 using a commercially available ADP-Glo™ kit from Promega. The assay was carried out in white low volume 384 well plates in a final volume of 14 μl at rt. The assay conditions contained the following: 50 mM Tris buffer pH 7.4, 2.1 mM DTT, 3 mM MgCl2, 0.05% CHAPS, 20 μM ATP, 80 μM DiC8-PIP2 and 1.2 nM PI3Kγ. […] Routinely, inhibitors were pre-incubated with 3 μl of PI3Kγ for 15 min prior to the addition of […] substrate mixture for a further 60 min enzyme reaction. The phosphorylation was stopped with the addition of 3 μl ADP-Glo™ reagent (stop solution) followed by a 40 min incubation. Prior to detection 6 μl of ADP-Glo™ Kinase Detection Reagent was added and the plates were read in a micro plate reader using a Luminescence filter.

Chain of recombinant human PI3Kγ (aa144-1102)-6His (P48736 144-1102): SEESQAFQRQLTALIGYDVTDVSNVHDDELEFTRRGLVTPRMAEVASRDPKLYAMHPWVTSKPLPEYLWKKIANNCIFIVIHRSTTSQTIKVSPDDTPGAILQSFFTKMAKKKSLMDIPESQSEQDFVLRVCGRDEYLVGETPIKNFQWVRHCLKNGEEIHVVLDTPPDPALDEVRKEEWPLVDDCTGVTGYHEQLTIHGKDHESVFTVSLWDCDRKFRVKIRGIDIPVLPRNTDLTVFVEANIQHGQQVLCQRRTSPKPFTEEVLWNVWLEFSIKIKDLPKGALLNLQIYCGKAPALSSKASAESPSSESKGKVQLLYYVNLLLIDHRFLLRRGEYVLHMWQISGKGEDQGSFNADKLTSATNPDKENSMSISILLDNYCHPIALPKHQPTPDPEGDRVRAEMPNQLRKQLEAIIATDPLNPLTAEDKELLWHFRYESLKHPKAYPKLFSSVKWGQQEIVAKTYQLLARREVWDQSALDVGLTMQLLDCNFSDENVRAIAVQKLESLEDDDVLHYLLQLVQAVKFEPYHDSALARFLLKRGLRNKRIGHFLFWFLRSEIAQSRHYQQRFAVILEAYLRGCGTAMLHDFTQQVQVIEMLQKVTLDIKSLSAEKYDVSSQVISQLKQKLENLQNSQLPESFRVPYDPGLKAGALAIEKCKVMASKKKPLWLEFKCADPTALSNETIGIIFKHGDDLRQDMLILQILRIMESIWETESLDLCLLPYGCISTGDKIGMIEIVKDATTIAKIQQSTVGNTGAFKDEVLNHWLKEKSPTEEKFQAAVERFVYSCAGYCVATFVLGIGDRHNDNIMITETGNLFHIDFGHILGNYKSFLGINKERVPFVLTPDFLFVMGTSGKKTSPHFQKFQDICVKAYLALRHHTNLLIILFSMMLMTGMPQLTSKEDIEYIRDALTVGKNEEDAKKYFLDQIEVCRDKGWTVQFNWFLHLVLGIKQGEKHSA

SMILES	PI3Kγ activity, pIC50
CC(=O)Nc1nc(C)c(-c2cc3c(c(NS(=O)(=O)C4CC4)c2)C(=O)N([C@@H](C)C2CC2)C3)s1 [Example 23, N-(5-{2-[(1S)-1-Cyclopropylethyl]-7-[(cyclopropylsulfonyl)amino]-1-oxo-2,3-dihydro-1H-isoindol-5-yl}-4-methyl-1,3-thiazol-2-yl)acetamide]	9.2
CC(=O)Nc1nc(C)c(-c2cc3c(c(S(=O)(=O)NC4COC4)c2)C(=O)N([C@@H](C)C2CC2)C3)s1 [Example 16, N-(5-{2-[(1S)-1-Cyclopropylethyl]-7-(oxetan-3-ylsulfamoyl)-1-oxo-2,3-dihydro-1H-isoindol-5-yl}-4-methyl-1,3-thiazol-2-yl)acetamide]	9.2
CC(=O)Nc1nc(C)c(-c2cc3c(c(S(C)(=O)=O)c2)C(=O)N(C(C)C)C3)s1 [Example 3, N-{4-Methyl-5-[7-(methylsulfonyl)-1-oxo-2-(propan-2-yl)-2,3-dihydro-1H-isoindol-5-yl]-1,3-thiazol-2-yl}acetamide]	8.8
CC(=O)Nc1nc(C)c(-c2cc3c(c(NS(=O)(=O)C(C)(C)C)c2)C(=O)N([C@@H](C)C2CC2)C3)s1 [Example 26, N-(5-{7-[(tert-Butylsulfonyl)amino]-2-[(1S)-1-cyclopropylethyl]-1-oxo-2,3-dihydro-1H-isoindol-5-yl}-4-methyl-1,3-thiazol-2-yl)acetamide]	9.0

Same assay, conditions: 20 μM ATP, 80 μM DiC8-PIP2, 1.2 nM PI3Kγ, 15 min pre-incubation, 60 min reaction; read-out: PI3Kγ activity, pIC50 (converted)

SMILES	IC50
CC(=O)Nc1ncc(-c2cc3c(c(S(N)(=O)=O)c2)C(=O)N([C@@H](C)C2CC2)C3)s1 [Example 12, N-(5-{2-[(1S)-1-Cyclopropylethyl]-1-oxo-7-sulfamoyl-2,3-dihydro-1H-isoindol-5-yl}-1,3-thiazol-2-yl)acetamide]	1.26 nM
CC(=O)Nc1ncc(-c2cc3c(c(NS(C)(=O)=O)c2)C(=O)N([C@@H](C)C2CC2)C3)s1 [Example 22, N-(5-{2-[(1S)-1-Cyclopropylethyl]-7-[(methylsulfonyl)amino]-1-oxo-2,3-dihydro-1H-isoindol-5-yl}-1,3-thiazol-2-yl)acetamide]	0.794 nM
